Values quoted from earlier work in US7935702B2, “Substituted biaryl quinolin-4-ylamine analogues” (Neurogen Corporation, priority 2004, dated 2011).

Molecular target: VR (Homo sapiens, UniProt Q8NER1)
Details: background; typical value; cited from earlier work

VR, sequence (Q8NER1 whole entry): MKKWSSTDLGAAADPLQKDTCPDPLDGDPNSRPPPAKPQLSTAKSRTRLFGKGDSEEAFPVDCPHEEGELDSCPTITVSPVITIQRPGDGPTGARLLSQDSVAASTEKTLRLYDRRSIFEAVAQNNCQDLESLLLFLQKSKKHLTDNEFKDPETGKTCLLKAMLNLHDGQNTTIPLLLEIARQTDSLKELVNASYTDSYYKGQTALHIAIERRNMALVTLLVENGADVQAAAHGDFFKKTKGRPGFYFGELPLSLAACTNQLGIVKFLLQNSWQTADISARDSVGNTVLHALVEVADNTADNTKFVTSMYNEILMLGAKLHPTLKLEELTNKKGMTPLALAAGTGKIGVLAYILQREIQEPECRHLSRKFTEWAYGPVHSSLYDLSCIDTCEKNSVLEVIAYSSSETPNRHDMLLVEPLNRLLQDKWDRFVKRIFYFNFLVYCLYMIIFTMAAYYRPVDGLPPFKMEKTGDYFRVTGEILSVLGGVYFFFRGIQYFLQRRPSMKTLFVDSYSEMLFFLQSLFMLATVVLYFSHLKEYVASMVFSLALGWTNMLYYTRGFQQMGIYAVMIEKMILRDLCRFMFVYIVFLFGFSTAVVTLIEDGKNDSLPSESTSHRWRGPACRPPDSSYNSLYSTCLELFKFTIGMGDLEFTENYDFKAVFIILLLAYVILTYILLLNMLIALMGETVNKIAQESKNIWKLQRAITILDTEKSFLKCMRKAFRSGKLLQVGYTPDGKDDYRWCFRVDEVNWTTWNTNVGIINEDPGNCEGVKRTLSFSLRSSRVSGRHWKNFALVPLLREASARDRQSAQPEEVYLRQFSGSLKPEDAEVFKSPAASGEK

## Cl.Cl.Cl.Cl.Cl.Cl.N.N.N.N.N.N.N.N.N.N.N.N.N.N.[O-2].[O-2].[Ru+3].[Ru+3].[Ru+4] [ruthenium red]
  Ki: ≥ 140 µM
